For data set [1], the target named is Prostaglandin G/H synthase 1 (Homo sapiens, UniProt P23219).
The species entered for data set [2] is Rattus norvegicus. Nature of the data set: animal or person. Particulars: read-out: Inhibition.
Data set [3] can be described thus: in vivo. The settings on record: rat, iv, 10 mg/kg.
Data set [4] is filed under the species Rattus norvegicus. Nature of the data set: animal or person. It is filed as functional.
The species named for data set [5] is Rattus norvegicus. Put plainly: animal or person. It is filed as functional. This is another data set of the same source.
For data set [6], the species on record is Rattus norvegicus. Particulars: in vivo, po, 100 mg/kg.
Data set [7] is filed under the species Rattus norvegicus. The settings on record: in vivo, po, 100 mg/kg. This is another data set of the same source.
For data set [8], the species on record is Rattus norvegicus. Put plainly: animal or person. It is filed as functional. This is another data set of the same source.
For data set [9], the species on record is Homo sapiens. Nature of the data set: tissue or blood.
For data set [10], the species on record is Homo sapiens. Nature of the data set: tissue or blood. The source holds these as a separate data set.
For data set [11], the species on record is Rattus norvegicus. The settings on record: in vivo, po, 100 mg/kg. The source holds these as a separate data set.
A short description of data set [12]: in vivo. The settings on record: rat, iv, 2 mg/kg.
Data set [13] is described as follows: in vivo. Particulars: rat, iv, 10 mg/kg. The source holds these as a separate data set.
Data set [14] is filed under the species Rattus norvegicus. The settings on record: in vivo, po, 100 mg/kg. The source holds these as a separate data set.
For data set [15], the species on record is Rattus norvegicus. The settings on record: in vivo, po, 100 mg/kg. This is another data set of the same source.
Data set [16] can be described thus: in vivo. The settings on record: rat, iv, 10 mg/kg. This is another data set of the same source.
The species named for data set [17] is Rattus norvegicus. Particulars: in vivo, po, 100 mg/kg. This is another data set of the same source.
Data set [18] is filed under the species Rattus norvegicus. The settings on record: in vivo, po, 16 mg/kg.
The species named for data set [19] is Rattus norvegicus. The settings on record: in vivo, po, 16 mg/kg. The source holds these as a separate data set.
Setting [20] is: Rattus norvegicus, read-out: ED50.

Chain of Prostaglandin G/H synthase 1 (P23219 whole entry): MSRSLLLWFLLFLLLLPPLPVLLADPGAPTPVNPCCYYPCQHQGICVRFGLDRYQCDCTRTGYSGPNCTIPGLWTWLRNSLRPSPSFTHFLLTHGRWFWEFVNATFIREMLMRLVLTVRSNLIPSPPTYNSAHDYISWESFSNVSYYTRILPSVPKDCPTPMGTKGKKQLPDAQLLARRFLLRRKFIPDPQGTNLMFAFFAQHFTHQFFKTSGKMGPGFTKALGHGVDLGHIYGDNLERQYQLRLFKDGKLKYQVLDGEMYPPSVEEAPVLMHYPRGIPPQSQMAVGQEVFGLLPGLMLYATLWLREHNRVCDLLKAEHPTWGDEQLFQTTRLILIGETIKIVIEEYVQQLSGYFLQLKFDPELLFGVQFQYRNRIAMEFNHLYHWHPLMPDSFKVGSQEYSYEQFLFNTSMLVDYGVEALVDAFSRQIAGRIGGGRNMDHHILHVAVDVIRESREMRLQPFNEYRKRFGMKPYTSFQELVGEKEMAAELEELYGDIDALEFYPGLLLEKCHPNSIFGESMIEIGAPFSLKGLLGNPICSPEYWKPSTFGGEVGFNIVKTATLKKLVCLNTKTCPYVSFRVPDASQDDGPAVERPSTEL

Turning to `Cc1cncc(-c2nc(C(F)(F)F)cn2-c2ccc(S(N)(=O)=O)cc2)c1`, in data set [1], the IC50 was over 1000 µM. Also, the inhibition in vivo at 2 mg/kg in [2] amounted to 96%. In data set [3], this compound gave a half-life of 4.96 h. For the same compound, the ED50 in data set [4] was determined as 0.67 mg/kg; in data set [5], 32 mg/kg; in data set [8] (setting [20]), 7.5 mg/kg. The “No. of animals with damage” value in data set [6] and in data set [7] was 0 in each case.
On to `NS(=O)(=O)c1ccc(-n2cc(C(F)(F)F)nc2-c2cncc(Br)c2)cc1`, for which the inhibition in vivo at 2 mg/kg in [2] came out at 26%.
The same measure, in the same setting: the value for `COc1ccc(-c2nc(C(F)(F)F)cn2-c2ccc(S(C)(=O)=O)cc2)cn1` was 100%; that for `CS(=O)(=O)c1ccc(-n2cc(C(F)(F)F)nc2-c2nccc3ccccc23)cc1` was 60%.
As for `CS(=O)(=O)c1ccc(-n2cc(C(F)(F)F)nc2-c2ccccn2)cc1`, the IC50 was over 1000 µM in [1], over 10 µM in data set [9] and 0.24 µM in data set [10]. The inhibition in vivo at 2 mg/kg in data set [2] worked out at 100%.
As for `NS(=O)(=O)c1ccc(-n2cc(C(F)(F)F)nc2-c2cccnc2)cc1`, the 50% inhibitory concentration (IC50) in data set [1] is over 1000 µM. Moreover, the inhibition in vivo at 2 mg/kg in [2] worked out at 100%.
In the case of `Cc1ccc(-c2nc(C(F)(F)F)cn2-c2ccc(S(N)(=O)=O)cc2)cn1`, the inhibition in vivo at 2 mg/kg in data set [2] came out at 100%.
Turning to `Cc1ccnc(-c2nc(C(F)(F)F)cn2-c2ccc(S(N)(=O)=O)cc2)c1`, the half-inhibitory concentration (IC50) in data set [1] was found to be 84 µM. Besides, the inhibition in vivo at 2 mg/kg in data set [2] came to 75%.
`CS(=O)(=O)c1ccc(-n2cc(C(F)(F)F)nc2-c2cc3ccccc3cn2)cc1` displayed an IC50 in data set [1] of 32 µM.
Consider `Cc1csc(-c2nc(C(F)(F)F)cn2-c2ccc(S(N)(=O)=O)cc2)n1`, for which the IC50 in data set [1] is over 1000 µM. Moreover, in [2], the inhibition in vivo at 2 mg/kg came to 100%. In addition, the ED50 in data set [4] turned out to be 0.33 mg/kg; in [5] it was 18.5 mg/kg; in data set [8] (setting [20]), 13.4 mg/kg.
On to `Cc1nc(-c2nc(C(F)(F)F)cn2-c2ccc(S(N)(=O)=O)cc2)cs1`, for which the inhibition in vivo at 2 mg/kg in data set [2] was 100%. In addition, the “No. of animals with damage” value in data set [11] and in data set [6] was 0 throughout. In addition, the ED50 in [4] was 0.57 mg/kg; in data set [5] it was 14 mg/kg; in data set [8] (setting [20]), 13.4 mg/kg. Besides, the half-life in [12] was 3.4 h.
`Cc1ncccc1-c1nc(C(F)(F)F)cn1-c1ccc(S(N)(=O)=O)cc1` gave a half-life in [13] of 4.85 h. Also, the “No. of animals with damage” value in data set [14] and in data set [15] was 0 each time. In addition, the inhibition in vivo at 2 mg/kg in [2] came out at 100%. In addition, the ED50 in data set [4] was found to be 1 mg/kg; in data set [5] it was 18 mg/kg; in [8] (setting [20]), 6.9 mg/kg.
On to `Cc1cccc(-c2nc(C(F)(F)F)cn2-c2ccc(S(N)(=O)=O)cc2)n1`, for which the inhibition in vivo at 2 mg/kg in [2] stood at 100%. Also, the ED50 in [4] is 0.64 mg/kg; in [5] it was 20.3 mg/kg; in data set [8] (setting [20]), 8.2 mg/kg. Besides, the “No. of animals with damage” value in data set [6] and in [7] was 0 throughout.
`CS(=O)(=O)c1ccc(-n2cc(C(F)(F)F)nc2-c2cc(Br)cs2)cc1`: the IC50 in data set [1] was over 1000 µM. In addition, in data set [2], the inhibition in vivo at 2 mg/kg was 75%.
Consider `CS(=O)(=O)c1ccc(-n2cc(C(F)(F)F)nc2-c2cnc3ccccc3c2)cc1`, for which the inhibition in vivo at 2 mg/kg in [2] is 90%.
For the compound `Cc1cn(-c2ccc(S(C)(=O)=O)cc2)c(-c2cccnc2)n1`, the IC50 in data set [1] is over 100 µM.
The compound `CS(=O)(=O)c1ccc(-n2cc(CO)nc2-c2cccnc2)cc1` yielded an IC50 in data set [1] of over 1000 µM.
`Cc1ncccc1-c1nc(C(F)(F)F)cn1-c1ccc(S(C)(=O)=O)cc1` registered an IC50 in [1] of over 100 µM. The inhibition in vivo at 2 mg/kg in data set [2] was 81%.
`Cc1cc(-c2nc(C(F)(F)F)cn2-c2ccc(S(N)(=O)=O)cc2)no1` had an IC50 in data set [1] of over 1000 µM. The inhibition in vivo at 2 mg/kg in [2] came out at 92%.
`Cc1ccsc1-c1nc(C(F)(F)F)cn1-c1ccc(S(C)(=O)=O)cc1`: the IC50 in [1] is over 1000 µM. The inhibition in vivo at 2 mg/kg in [2] turned out to be 11%.
`COc1cncc(-c2nc(C(F)(F)F)cn2-c2ccc(S(C)(=O)=O)cc2)c1` gave an IC50 in data set [1] of over 100 µM.
Take `CS(=O)(=O)c1ccc(-n2cc(C#N)nc2-c2cccnc2)cc1`: the IC50 in [1] is over 100 µM.
`CS(=O)(=O)c1ccc(-n2cc(C(F)(F)F)nc2-c2cncc(Br)c2)cc1` showed an IC50 in data set [1] of over 1000 µM. In addition, the inhibition in vivo at 2 mg/kg in data set [2] was 90%.
In [1], `CS(=O)(=O)c1ccc(-n2cc(C(F)(F)F)nc2-c2cccc3c2OCO3)cc1` showed an IC50 of over 100 µM. Further, the inhibition in vivo at 2 mg/kg in data set [2] was determined as 11%.
`Cc1ncc(-c2nc(C(F)(F)F)cn2-c2ccc(S(N)(=O)=O)cc2)s1` came in with an IC50 in data set [1] of over 1000 µM. The inhibition in vivo at 2 mg/kg in [2] was 75%.
With `Cc1cccc(-c2nc(C(F)(F)F)cn2-c2ccc(S(C)(=O)=O)cc2)n1`, the inhibition in vivo at 2 mg/kg in data set [2] was found to be 92%.
`Cc1ccncc1-c1nc(C(F)(F)F)cn1-c1ccc(S(C)(=O)=O)cc1` registered an IC50 in [1] of over 100 µM.
For `Cc1cccnc1-c1nc(C(F)(F)F)cn1-c1ccc(S(N)(=O)=O)cc1`, the inhibition in vivo at 2 mg/kg in data set [2] was 100%.
For the compound `NS(=O)(=O)c1ccc(-n2cc(C(F)(F)F)nc2-c2cccs2)cc1`, in data set [2], the inhibition in vivo at 2 mg/kg came to 95%.
Turning to `Cc1ccnc(-c2nc(C(F)(F)F)cn2-c2ccc(S(C)(=O)=O)cc2)c1`, the inhibition in vivo at 2 mg/kg in [2] turned out to be 84%.
In the case of `NS(=O)(=O)c1ccc(-n2cc(C(F)F)nc2-c2cccnc2)cc1`, the half-maximal inhibitory concentration (IC50) in data set [1] is over 100 µM. Besides, the inhibition in vivo at 2 mg/kg in data set [2] was 19%.
For the compound `Cc1ccc(-c2nc(C(F)(F)F)cn2-c2ccc(S(C)(=O)=O)cc2)nc1`, the inhibition in vivo at 2 mg/kg in data set [2] amounted to 97%. The ED50 in data set [4] stood at 1 mg/kg; in [5], 20 mg/kg.
`Cc1cncc(-c2nc(C(F)(F)F)cn2-c2ccc(S(C)(=O)=O)cc2)c1`: the inhibition in vivo at 2 mg/kg in data set [2] was determined as 75%.
In the case of `CS(=O)(=O)c1ccc(-n2cc(C(F)F)nc2-c2cccnc2)cc1`, the IC50 in data set [1] was over 100 µM.
Take `Cc1cccnc1-c1nc(C(F)(F)F)cn1-c1ccc(S(C)(=O)=O)cc1`: the inhibition in vivo at 2 mg/kg in [2] was found to be 100%. Moreover, the ED50 in data set [4] came to 0.3 mg/kg; in [8] it was 35%.
For `Cn1cc(-c2nc(C(F)(F)F)cn2-c2ccc(S(C)(=O)=O)cc2)c2ccccc21`, the inhibition in vivo at 2 mg/kg in data set [2] was 0%.
For the compound `CS(=O)(=O)c1ccc(-n2cc(C(F)(F)F)nc2-c2cccnc2)cc1`, in [16], the half-life was 11.6 h. Further, the inhibition in vivo at 2 mg/kg in [2] was 100%. The IC50 in data set [9] was found to be 41.6 µM; in [10], 0.2 µM. Moreover, the ED50 in [4] was 0.25 mg/kg; in data set [5], 8.2 mg/kg; in data set [8] (setting [20]), 5.4 mg/kg. Further, the “No. of animals with damage” value in data set [17] and in [6] was 0 each time.
For `Cc1ccc(-c2nc(C(F)(F)F)cn2-c2ccc(S(C)(=O)=O)cc2)cn1`, the inhibition in vivo at 2 mg/kg in data set [2] amounted to 93%. Besides, the ED50 in data set [4] amounted to 0.2 mg/kg; in data set [5] it was 33 mg/kg; in data set [8] (setting [20]) it was 41 mg/kg.
Compound `Cc1ccncc1-c1nc(C(F)(F)F)cn1-c1ccc(S(N)(=O)=O)cc1` yielded an IC50 in data set [1] of over 100 µM.
`Cc1nc(-c2nc(C(F)(F)F)cn2-c2ccc(S(C)(=O)=O)cc2)cs1`: the inhibition in vivo at 2 mg/kg in data set [2] is 73%.
Consider `Cc1ccc(-c2nc(C(F)(F)F)cn2-c2ccc(S(N)(=O)=O)cc2)nc1`, for which the IC50 in data set [1] was found to be 302 µM. Moreover, the inhibition in vivo at 2 mg/kg in [2] is 100%.
For `Cc1nc(-c2nc(C(F)(F)F)cn2-c2ccc(S(C)(=O)=O)cc2)co1` the same measures were over 100 µM and 0%.
For `CS(=O)(=O)c1ccc(-n2cc(C(F)(F)F)nc2-c2cccs2)cc1`, the inhibition in vivo at 2 mg/kg in data set [2] was determined as 24%.
Turning to `CS(=O)(=O)c1ccc(-n2cc(C(F)(F)F)nc2-c2ccccc2)cc1`, the ED50 in data set [8] (setting [20]) was 0.15 mg/kg.
On to `Cc1ccccc1-c1nc(C(F)(F)F)cn1-c1ccc(S(C)(=O)=O)cc1`, for which, in data set [8] (setting [20]), the ED50 was 18 mg/kg.
Turning to `COc1ccc2c(c1)c(CC(=O)O)c(C)n2C(=O)c1ccc(Cl)cc1` [INDOMETHACIN], the “No. of animals with damage” value in [18] and in [19] was 6 in each case. The ED50 in data set [4] came to 0.1 mg/kg.

Broadly, the IC50 is the concentration at which inhibition is half-maximal. The low end stands for greater potency in that assay, the high end for weaker potency in that assay. A word on the half-life: it is the time needed for the level to fall by half in the phase considered. Lower therefore signals rapid decline.

The values are drawn from ChEMBL document CHEMBL1133620, “Selective cyclooxygenase-2 inhibitors: heteroaryl modified 1,2-diarylimidazoles are potent, orally active antiinflammatory agents” (J Med Chem, 2000).
